Test results from patent US5545639A, “Method of inhibiting transformed cells” (The United States of America as represented by the …, priority 1994, dated 1996).
Where two headings read alike, the source gives them in different places.

Experiments:
[1] = test system: mouse L1210 leukemia cells; assay: Example 2: growth of mouse L1210 leukemia cells with monohalomethyl phenanthrolines, with/without copper and BCS; format: cell-based
Method: The aforementioned monohalomethyl compounds were prepared and characterized as described by Newkome et al., J. Org. Chem., 54, 1766-1769 (1989). The compounds were then added to different cultures of mouse L1210 leukemia cells alone (.smallcircle.), with copper sulfate (.quadrature.), with BCS (.circle-solid.), or with BCS and copper sulfate (.box-solid.). The concentrations of copper and BCS used in these experiments were 10 μM and 100 μM, respectively. Methods used to grow the cells and to administer the test compounds were standard methods, well known to ordinary practitioners, and were similar to those used in Example 1. The growth of the cells as a percent of controls were determined, and the results were plotted in the graph of FIG. 2.

L1210 cells = details: 2,9-DMP with copper; cited from earlier work
mouse L1210 cells = details: coordinated copper complex, tissue culture; cited from earlier work
[2] = test system: mouse L1210 leukemia cells; assay: Example 1: growth of mouse L1210 leukemia cells with 2,9-DMP, with/without copper and BCS; format: cell-based; details: for activity at 0.4 µM: at concentrations above about 0.4 μM
Method: The phenanthroline derivative 2,9-DMP was added to a culture of mouse L1210 leukemia cells alone (.smallcircle.), with copper sulfate (.circle-solid.), and with copper sulfate and bathocuproine sulfonate (.quadrature.). The concentrations of copper sulfate and bathocuproine sulfonate used in these experiments were both 25 μM. Methods used to grow the cells and to administer the test compounds were standard methods, well known to ordinary practitioners. The growth of the cells as a percent of control was determined, and the results were plotted in the graph of FIG. 1.

[3] = test system: P388 murine lymphocytic leukemia cells; details: mice inoculated with P388 cells; 2,9-DMP treatment with copper; cited from earlier work
L1210 mouse cells = assay: Example 3: growth of L1210 mouse cells with bis(halomethyl)phenanthrolines plus copper, with or without BCS; format: cell-based; details: copper 10 μM, BCS 100 μM
Method: Bis(halomethyl)phenanthroline compounds were synthesized according to the method of Newkome et al., J. Org. Chem., 48, 5112-5114 (1983). Such compounds, namely, 2,9-bis(bromomethyl)phenanthroline and 2,9-bis(chloromethyl)phenanthroline, were added in the presence of copper, but with or without BCS (the copper chelator shown in Examples 1 and 2 to reduce inhibitory activity), to the culture media of L1210 mouse cells, using the same methods of Examples 1 and 2. The concentrations of copper and BCS used in these experiments were 10 μM and 100 μM, respectively. The growth of the cells as a percent of control were determined, and the results plotted in the graph of FIG. 3, wherein open squares (.quadrature.) represent the compound plus copper chelate and solid squares (.box-solid.) represent the compound together with both copper and BCS addition to the culture medium.

## Cc1ccc2ccc3ccc(CCl)nc3c2n1 [2-CM-9-MP, 2-chloromethyl-9-methyl-1,10-phenanthroline]
[1]
  inhibitory activity compared with unhalogenated parent compound of Example 1: less than that of the unhalogenated parent compound

## Cc1ccc2ccc3ccc(C)nc3c2n1 [2,9-DMP, 2,9-dimethyl-1,10-phenanthroline]
L1210 cells
  inhibitory response of L1210 tumor in implanted animals: evident, although weak
Mouse L1210 cells
  concentration effective for killing of L1210 cells: nanomolar concentrations
[2]; Mus musculus, L1210, 2,9-DMP alone, read-out: cell growth as percent of control
  activity at 0.4 µM: < 20%
[2]; Mus musculus, L1210, with copper ion (copper sulfate 25 μM), at concentrations above about 0.1 μM, read-out: cell growth as percent of control
  activity at 0.1 µM: < 20%
[2]; Mus musculus, L1210, with copper ion (copper sulfate 25 μM), read-out: cell growth as percent of control
  activity at 0.4 µM: < 10%
[2]; copper chelated
  concentration inhibiting to the same level (20% of control) relative to copper-chelated monobrominated phenanthroline: less than one-tenth of that concentration
[3]
  increase in life span: 45%

## Cc1ccc2ccc3ccc(CBr)nc3c2n1 [2-BM-9-MP, 2-bromomethyl-9-methyl-1,10-phenanthroline]
[1]
  inhibitory activity compared with unhalogenated parent compound of Example 1: less than that of the unhalogenated parent compound

## BrCc1ccc2ccc3ccc(CBr)nc3c2n1 [2,9-bis(bromomethyl)-1,10-phenanthroline]
L1210 mouse cells
  difference in inhibitory effect, presence vs absence of available copper (BCS): about 10%
